Biological target: T1, CteC36–276 (Chromobacterium violaceum, UniProt Q7NY09)
T1 construct: gene cteC; residues 36-276 (disordered N-terminal 1-35 removed); SeMet form for the crystal
Test: isothermal titration calorimetry
Assay type: binding

T1 sequence (Q7NY09 36-276): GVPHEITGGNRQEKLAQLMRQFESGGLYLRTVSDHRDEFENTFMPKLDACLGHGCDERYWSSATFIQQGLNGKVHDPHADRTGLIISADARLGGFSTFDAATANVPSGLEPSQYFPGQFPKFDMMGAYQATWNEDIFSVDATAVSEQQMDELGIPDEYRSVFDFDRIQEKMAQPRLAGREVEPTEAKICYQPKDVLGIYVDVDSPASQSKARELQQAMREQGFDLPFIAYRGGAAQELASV

NC(=O)c1ccc[n+]([C@@H]2O[C@H](COP(=O)(O)OP(=O)(O)OC[C@H]3O[C@@H](n4cnc5c(N)ncnc54)[C@H](O)[C@@H]3O)[C@@H](O)[C@H]2O)c1 [NAD^+]
Kd: 123 µM

Source: PMC10810742 (The Journal of Biological Chemistry, 2023)
